In the Kinase Knowledgebase extract (Sharma et al. 2016):

target: PIK3CA (human) (UniProt P42336); test: Cell-Based Assay; conditions: bt474
Sequence (P42336 whole entry, looked up): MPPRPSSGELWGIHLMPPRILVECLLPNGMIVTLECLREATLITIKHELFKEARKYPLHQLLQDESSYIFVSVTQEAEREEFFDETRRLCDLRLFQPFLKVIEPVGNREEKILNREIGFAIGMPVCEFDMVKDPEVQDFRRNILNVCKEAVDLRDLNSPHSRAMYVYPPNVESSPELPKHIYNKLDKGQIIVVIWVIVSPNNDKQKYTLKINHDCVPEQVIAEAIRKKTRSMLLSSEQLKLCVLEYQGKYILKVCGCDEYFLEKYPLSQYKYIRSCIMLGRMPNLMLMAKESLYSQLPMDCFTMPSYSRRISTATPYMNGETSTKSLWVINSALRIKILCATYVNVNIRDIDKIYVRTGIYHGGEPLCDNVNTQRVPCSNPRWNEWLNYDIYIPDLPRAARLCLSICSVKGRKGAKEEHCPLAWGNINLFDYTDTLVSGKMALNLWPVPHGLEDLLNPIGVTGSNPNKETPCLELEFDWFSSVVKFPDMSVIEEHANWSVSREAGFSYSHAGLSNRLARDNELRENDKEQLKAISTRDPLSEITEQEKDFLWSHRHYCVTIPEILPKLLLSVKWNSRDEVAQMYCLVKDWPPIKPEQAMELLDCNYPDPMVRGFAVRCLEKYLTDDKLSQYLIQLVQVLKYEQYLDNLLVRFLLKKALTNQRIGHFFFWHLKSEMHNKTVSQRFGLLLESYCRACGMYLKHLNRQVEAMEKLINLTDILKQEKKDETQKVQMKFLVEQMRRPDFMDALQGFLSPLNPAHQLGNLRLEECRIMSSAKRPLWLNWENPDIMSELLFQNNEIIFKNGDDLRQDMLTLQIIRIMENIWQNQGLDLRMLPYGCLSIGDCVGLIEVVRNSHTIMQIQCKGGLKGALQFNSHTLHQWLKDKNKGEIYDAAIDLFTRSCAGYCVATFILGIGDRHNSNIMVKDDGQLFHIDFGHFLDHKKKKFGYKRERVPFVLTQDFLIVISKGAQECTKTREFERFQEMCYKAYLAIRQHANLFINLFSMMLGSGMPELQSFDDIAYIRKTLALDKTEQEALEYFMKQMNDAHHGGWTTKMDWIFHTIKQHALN

Structure (SMILES) | IC50 [µM]
CN(C)CCCOc1ccc(-c2cc3c(cc2F)ncc2c3n([C@@H]3CCCOC3)c(=O)n2C)cn1 | 10
CN(C)CCCOc1ccc(-c2ccc3ncc4c(c3c2)n([C@H]2C[C@@H](O)C2)c(=O)n4C)cn1 | 1.08
CN(C)CCCOc1ccc(-c2cc3c(cc2F)ncc2c3n(C3COC3)c(=O)n2C)cn1 | > 29.1
CN(C)CCCOc1ccc(-c2ccc3ncc4c(c3c2)n(C2COC2)c(=O)n4C)cn1 | 6.84
CN(C)CCCOc1ccc(-c2cc3c(cc2F)ncc2c3n([C@H]3CCCOC3)c(=O)n2C)c(F)n1 | > 9.4
CN(C)CCCOc1ccc(-c2cc3c(cc2F)ncc2c3n([C@H]3CCCOC3)c(=O)n2C)cn1 | > 20.2
Cn1c(=O)n(C2CCOCC2)c2c3cc(-c4ccc(OCCCN5CCCCC5)nc4)c(F)cc3ncc21 | > 16.7
O=c1[nH]c2cnc3ccc(-c4ccc(OCCCN5CCCCC5)nc4)cc3c2n1C1CCOCC1 | > 25
CO[C@H]1C[C@@H](n2c(=O)n(C)c3cnc4cc(F)c(-c5ccc(OCCCN(C)C)nc5F)cc4c32)C1 | > 28
CO[C@H]1C[C@@H](n2c(=O)n(C)c3cnc4cc(F)c(-c5ccc(OCCCN6CCCC6)nc5)cc4c32)C1 | > 29.8
CO[C@H]1C[C@@H](n2c(=O)n(C)c3cnc4cc(F)c(-c5ccc(OCCCN(C)C)nc5)cc4c32)C1 | > 30

More lines, now with the values ahead:

IC50 [µM] | Structure (SMILES)
> 30 | Cn1c(=O)n([C@H]2CCCOC2)c2c3cc(-c4ccc(OCCCN5CCCC5)nc4)c(F)cc3ncc21
> 23.5 | Cn1c(=O)n([C@H]2CCCOC2)c2c3cc(-c4ccc(OCCCN5CCCCC5)nc4)c(F)cc3ncc21
> 9.56 | Cn1c(=O)n(C2CCC2)c2c3cc(-c4ccc(OCCCN5CCCC5)nc4)ccc3ncc21
> 14.3 | Cn1c(=O)n(C2CCC2)c2c3cc(-c4ccc(OCCCN5CCCCC5)nc4)ccc3ncc21
0.499 | Cn1c(=O)n([C@H]2CCCOC2)c2c3cc(-c4ccc(OCCCN5CCC5)nc4)ccc3ncc21
> 10.9 | Cn1c(=O)n([C@H]2CCCOC2)c2c3cc(-c4ccc(OCCCN5CCCCC5)nc4)ccc3ncc21
> 26.3 | Cn1c(=O)n(C2COC2)c2c3cc(-c4ccc(OCCCN5CCCCC5)nc4)ccc3ncc21
> 16.2 | Cn1c(=O)n([C@H]2CCCOC2)c2c3cc(-c4ccc(OCCCN5CCCC5)nc4F)ccc3ncc21
